US7781473B2, “Heterocycle derivatives useful as selective androgen receptor modulators (SARMS)” (J & J Pharmaceutical Research & Development, LLC., priority 2004, dated 2010)

System: castrated male Sprague Dawley rats
Experiment: Ventral Prostate and Levator ani Weight in vivo Assay (agonist, stimulation of tissue weight)
Design: species or system rat; key: A compound was designated as agonist active if it produced greater than or equal to 20% stimulation of levator ani at 30 mg/kg; they are listed herein as “inactive” as they did not meet the specified criteria defined above; A designation of “toxic” indicates that the compound exhibited toxicity in the rats tested
Conditions: mature castrated rats, test compound oral gavage up to 30 mg/kg once daily for 14 days, vehicle = 0%, testosterone propionate = 100%; for % levator ani Stimulation: levator ani wet weight; for % Prostate Stimulation: ventral prostate wet weight
Experimental: Ventral Prostate and Levator ani Weight in vivo Assay
Mature (150 to 200 g) castrated male Sprague Dawley rats (Charles River) were treated once daily for 14 days with test compound (usually administered by oral gavage at up to the desired dosage, up to 30 mg/kg in a volume of 1 mL, in 30% cyclodextrin or 0.5% methylcellulose vehicle), or with testosterone propionate (administered subcutaneously by injection at the nape of the neck at 5 mg/kg, in a volume of 0.1 mL in sesame oil), or with vehicle (1 mL of 30% cyclodextrin or 0.5% methylcellulose, given orally). On the fifteenth day, the rats were euthanized by asphyxiation in carbon dioxide. Ventral prostates and levator ani muscles were removed and their wet weights determined.
Test compound activity was determined as the percent stimulation of tissue weight, with the vehicle-treated control group set to zero percent and the testosterone alone-treated control group set to 100%. A compound was designated as agonist active if it produced greater than or equal to 20% stimulation of levator ani at 30 mg/kg.
Representative compounds of the present invention were tested according to the procedure described, with results as listed in Table 10 below.

Compound | % levator ani Stimulation | % Prostate Stimulation
CC1(C(=O)NCc2ccc(S(C)(=O)=O)cc2)CC(C(F)(F)F)=NN1 (stereo not drawn) [Compound 27, 3-Methyl-5-trifluoromethyl-3,4-dihydro-2H-pyrazole-3-carboxylic acid 4-methanesulfonyl-benzylamide] | inactive | inactive
CC1(C(=O)Nc2ccc(C#N)c(C(F)(F)F)c2)CC(C(F)(F)C(F)(F)F)=NN1 (stereo not drawn) [Compound 98, 3-Methyl-5-pentafluoroethyl-3,4-dihydro-2H-pyrazole-3-carboxylic acid (4-cyano-3-trifluoromethyl-phenyl)-amide] | active | active
CC1CC(C(=O)Nc2ccc(C#N)c(C(F)(F)F)c2)(C(F)(F)F)N=N1 (stereo not drawn) [Compound 114, 5-Methyl-3-trifluoromethyl-4,5-dihydro-3H-pyrazole-3-carboxylic acid (4-cyano-3-trifluoromethyl-phenyl)-amide] | inactive | inactive
CC1(C(=O)N(C(=O)C(F)(F)F)c2ccc(C#N)c(C(F)(F)F)c2)CC(C(F)(F)F)=NN1 (stereo not drawn) [Compound 115, 3-Methyl-5-trifluoromethyl-3,4-dihydro-2H-pyrazole-3-carboxylic acid (4-cyano-3-trifluoromethyl-phenyl)-(2,2,2-trifluoro-acetyl)-amide] | inactive | inactive
CC1(C(=O)Nc2ccc(C#N)c(C(F)(F)F)c2)CC(C2CCCC2)=NN1 (stereo not drawn) [compound 78] | inactive | inactive
CSCCC1=NNC(C)(C(=O)Nc2ccc(C#N)c(C(F)(F)F)c2)C1 (stereo not drawn) [compound 79] | inactive | inactive
